According to patent US20100267561A1, “HERBICIDAL PYRIDAZINONE DERIVATIVES” (priority 2007, published 2010):

How the values were obtained:
Assay in all cases: Test E pre-/postemergence plant response
Type in all cases: in vivo
[1] = test system: pitted morningglory (Ipomoea lacunosa); details: scale 0 to 100
Excerpt: (§1) Seeds of plant species selected from bermudagrass (Cynodon dactylon), Surinam grass (Brachiaria decumbens), large crabgrass (Digitaria sanguinalis), green foxtail (Setaria viridis), goosegrass (Eleusine indica), johnsongrass (Sorghum halepense), kochia (Kochia scoparia), pitted morningglory (Ipomoea lacunosa), purple nutsedge (Cyperus rotundus), common ragweed (Ambrosia elation), black mustard (Brassica nigra), guineagrass (Panicum maximum), dallisgrass (Paspalum dilatatum), barnyardgrass (Echinochloa crus-galli), southern (S.) sandbur (Cenchrus echinatus), common sowthistle (Sonchus oleraceous), prickly sida (Sida spinosa), Italian ryegrass (Lolium multiflorum), common purslane (Portulaca oleracea), broadleaf signalgrass (Brachiaria platyphylla), common groundsel (Senecio vulgaris), common chickweed (Stellaria media), Virginia (V.) dayflower (Commelina virginica), tropical (T.) spiderwort (Commelina benghalensis), annual bluegrass (Poa annua), naked crabgrass (Digitaria nuda), itchgrass (Rottboellia cochinchinensis), quackgrass (Elytrigia repens), Canada horseweed (Conyza canadensis), field bindweed (Convolvulus arvensis), spanishneedles (Bidens bipinnata), common mallow (Malva sylvestris) and Russian thistle (Salsola kali) were planted and treated preemergence with test chemicals formulated in a non-phytotoxic solvent mixture which included a surfactant. At the same time, plants selected from these weed species were treated with postemergence applications of some of the test chemicals formulated in the same manner. Plants ranged in height from 2 to 18 cm (1- to 4-leaf stage) for postemergence treatments.
(§2) Treated plants and controls were maintained in a greenhouse for 14 to 21 days, after which time all species were compared to controls and visually evaluated. Plant response ratings, summarized in Table E, are based on a scale of 0 to 100 where 0 is no effect and 100 is complete control. A dash (-) response means no test result.

[2] = test system: green foxtail (Setaria viridis); details: scale 0 to 100
Excerpt: as §1, §2

[3] = test system: broadleaf signalgrass (Brachiaria platyphylla); details: scale 0 to 100
Excerpt: as §1, §2

[4] = test system: black mustard (Brassica nigra); details: scale 0 to 100
Excerpt: as §1, §2

[5] = test system: itchgrass (Rottboellia cochinchinensis); details: scale 0 to 100
Excerpt: as §1, §2

[6] = test system: barnyardgrass (Echinochloa crus-galli)
Excerpt: as §1, §2

[7] = test system: common groundsel (Senecio vulgaris); details: scale 0 to 100
Excerpt: as §1, §2

[8] = test system: johnsongrass (Sorghum halepense); details: scale 0 to 100
Excerpt: as §1, §2

[9] = test system: annual bluegrass (Poa annua); details: scale 0 to 100
Excerpt: as §1, §2

[10] = test system: common purslane (Portulaca oleracea); details: scale 0 to 100
Excerpt: as §1, §2

[11] = test system: surinam grass (Brachiaria decumbens); details: scale 0 to 100
Excerpt: as §1, §2

[12] = test system: naked crabgrass (Digitaria nuda); details: scale 0 to 100
Excerpt: as §1, §2

[13] = test system: Italian ryegrass (Lolium multiflorum); details: scale 0 to 100
Excerpt: as §1, §2

[14] = test system: dallisgrass (Paspalum dilatatum); details: scale 0 to 100
Excerpt: as §1, §2

[15] = test system: common mallow (Malva sylvestris); details: scale 0 to 100
Excerpt: as §1, §2

[16] = test system: large crabgrass (Digitaria sanguinalis); details: scale 0 to 100
Excerpt: as §1, §2

[17] = test system: purple nutsedge (Cyperus rotundus); details: scale 0 to 100
Excerpt: as §1, §2

## CCc1cc(-c2ccc(C(F)(F)F)cc2)nn1-c1c(OC(=O)OC(C)C)cnn(C)c1=O [Compound 12]
[1]; 4 g ai/ha, Postemergence
  Plant response rating, Morningglory: 0
[1]; 31 g ai/ha, Preemergence
  Plant response rating, Morningglory: 0
[1]; Postemergence, 8 g ai/ha
  Plant response rating, Morningglory: 0
[1]; Postemergence, 31 g ai/ha
  Plant response rating, Morningglory: 0
[1]; Preemergence, 4 g ai/ha
  Plant response rating, Morningglory: 0
[2]; 4 g ai/ha, Postemergence
  Plant response rating, Foxtail, Green: 30
[2]; 8 g ai/ha, Preemergence
  Plant response rating, Foxtail, Green: 60
[2]; 31 g ai/ha, Preemergence
  Plant response rating, Foxtail, Green: 100
[2]; Postemergence, 8 g ai/ha
  Plant response rating, Foxtail, Green: 90
[2]; Postemergence, 31 g ai/ha
  Plant response rating, Foxtail, Green: 100
[2]; Preemergence, 4 g ai/ha
  Plant response rating, Foxtail, Green: 0
[3]; 4 g ai/ha, Postemergence
  Plant response rating, Signalgrass: 65
[3]; 31 g ai/ha, Preemergence
  Plant response rating, Signalgrass: 95
[3]; Postemergence, 8 g ai/ha
  Plant response rating, Signalgrass: 80
[3]; Postemergence, 31 g ai/ha
  Plant response rating, Signalgrass: 100
[3]; Preemergence, 4 g ai/ha
  Plant response rating, Signalgrass: 0
[4]; 4 g ai/ha, Postemergence
  Plant response rating, Mustard, Black: 0
[4]; 8 g ai/ha, Preemergence
  Plant response rating, Mustard, Black: 0
[4]; 31 g ai/ha, Preemergence
  Plant response rating, Mustard, Black: 0
[4]; Postemergence, 8 g ai/ha
  Plant response rating, Mustard, Black: 0
[4]; Postemergence, 31 g ai/ha
  Plant response rating, Mustard, Black: 0
[4]; Preemergence, 4 g ai/ha
  Plant response rating, Mustard, Black: 0
[5]; 4 g ai/ha, Postemergence
  Plant response rating, Itchgrass: 0
[5]; 31 g ai/ha, Preemergence
  Plant response rating, Itchgrass: 80
[5]; Postemergence, 8 g ai/ha
  Plant response rating, Itchgrass: 50
[5]; Postemergence, 31 g ai/ha
  Plant response rating, Itchgrass: 95
[5]; Preemergence, 4 g ai/ha
  Plant response rating, Itchgrass: 20
[6]; 4 g ai/ha, Postemergence, scale 0 to 100
  Plant response rating, Barnyardgrass: 90
[6]; 8 g ai/ha, Preemergence, scale 0 to 100
  Plant response rating, Barnyardgrass: 70
[6]; 31 g ai/ha, Preemergence, scale 0 to 100
  Plant response rating, Barnyardgrass: 95
[6]; Postemergence, 8 g ai/ha, scale 0 to 100
  Plant response rating, Barnyardgrass: 100
[6]; Postemergence, 31 g ai/ha, scale 0 to 100
  Plant response rating, Barnyardgrass: 100
[6]; Preemergence, 4 g ai/ha, scale 0 to 100, 0 no effect, 100 complete control
  Plant response rating, Barnyardgrass: 20
[7]; 4 g ai/ha, Postemergence
  Plant response rating, Groundsel: 0
[7]; 31 g ai/ha, Preemergence
  Plant response rating, Groundsel: 0
[7]; Postemergence, 8 g ai/ha
  Plant response rating, Groundsel: 0
[7]; Postemergence, 31 g ai/ha
  Plant response rating, Groundsel: 0
[7]; Preemergence, 4 g ai/ha
  Plant response rating, Groundsel: 0
[8]; 4 g ai/ha, Postemergence
  Plant response rating, Johnsongrass: 95
[8]; 31 g ai/ha, Preemergence
  Plant response rating, Johnsongrass: 95
[8]; Postemergence, 8 g ai/ha
  Plant response rating, Johnsongrass: 95
[8]; Postemergence, 31 g ai/ha
  Plant response rating, Johnsongrass: 95
[8]; Preemergence, 4 g ai/ha
  Plant response rating, Johnsongrass: 75
[9]; 4 g ai/ha, Postemergence
  Plant response rating, Bluegrass: 0
[9]; 8 g ai/ha, Preemergence
  Plant response rating, Bluegrass: 0
[9]; 31 g ai/ha, Preemergence
  Plant response rating, Bluegrass: 0
[9]; Postemergence, 8 g ai/ha
  Plant response rating, Bluegrass: 0
[9]; Postemergence, 31 g ai/ha
  Plant response rating, Bluegrass: 0
[9]; Preemergence, 4 g ai/ha
  Plant response rating, Bluegrass: 0
[10]; 4 g ai/ha, Postemergence
  Plant response rating, Purslane: 0
[10]; 31 g ai/ha, Preemergence
  Plant response rating, Purslane: 0
[10]; Postemergence, 8 g ai/ha
  Plant response rating, Purslane: 0
[10]; Postemergence, 31 g ai/ha
  Plant response rating, Purslane: 0
[10]; Preemergence, 4 g ai/ha
  Plant response rating, Purslane: 0
[11]; 4 g ai/ha, Postemergence
  Plant response rating, Surinam Grass: 35
[11]; 31 g ai/ha, Preemergence
  Plant response rating, Surinam Grass: 95
[11]; Postemergence, 8 g ai/ha
  Plant response rating, Surinam Grass: 90
[11]; Postemergence, 31 g ai/ha
  Plant response rating, Surinam Grass: 98
[11]; Preemergence, 4 g ai/ha
  Plant response rating, Surinam Grass: 0
[12]; 4 g ai/ha, Postemergence
  Plant response rating, Crabgrass, Naked: 50
[12]; 8 g ai/ha, Preemergence
  Plant response rating, Crabgrass, Naked: 95
[12]; 31 g ai/ha, Preemergence
  Plant response rating, Crabgrass, Naked: 100
[12]; Postemergence, 8 g ai/ha
  Plant response rating, Crabgrass, Naked: 90
[12]; Postemergence, 31 g ai/ha
  Plant response rating, Crabgrass, Naked: 95
[12]; Preemergence, 4 g ai/ha
  Plant response rating, Crabgrass, Naked: 15
[13]; 4 g ai/ha, Postemergence
  Plant response rating, Ryegrass, Italian: 75
[13]; 31 g ai/ha, Preemergence
  Plant response rating, Ryegrass, Italian: 98
[13]; Postemergence, 8 g ai/ha
  Plant response rating, Ryegrass, Italian: 100
[13]; Postemergence, 31 g ai/ha
  Plant response rating, Ryegrass, Italian: 100
[13]; Preemergence, 4 g ai/ha
  Plant response rating, Ryegrass, Italian: 40
[14]; 4 g ai/ha, Postemergence
  Plant response rating, Dallisgrass: 65
[14]; 8 g ai/ha, Preemergence
  Plant response rating, Dallisgrass: 40
[14]; 31 g ai/ha, Preemergence
  Plant response rating, Dallisgrass: 100
[14]; Postemergence, 8 g ai/ha
  Plant response rating, Dallisgrass: 75
[14]; Postemergence, 31 g ai/ha
  Plant response rating, Dallisgrass: 85
[14]; Preemergence, 4 g ai/ha
  Plant response rating, Dallisgrass: 0
[15]; 4 g ai/ha, Postemergence
  Plant response rating, Mallow: 0
[15]; 31 g ai/ha, Preemergence
  Plant response rating, Mallow: 0
[15]; Postemergence, 8 g ai/ha
  Plant response rating, Mallow: 0
[15]; Postemergence, 31 g ai/ha
  Plant response rating, Mallow: 0
[15]; Preemergence, 4 g ai/ha
  Plant response rating, Mallow: 0
[16]; 4 g ai/ha, Postemergence
  Plant response rating, Crabgrass, Large: 0
[16]; 8 g ai/ha, Preemergence
  Plant response rating, Crabgrass, Large: 35
[16]; 31 g ai/ha, Preemergence
  Plant response rating, Crabgrass, Large: 98
[16]; Postemergence, 8 g ai/ha
  Plant response rating, Crabgrass, Large: 65
[16]; Postemergence, 31 g ai/ha
  Plant response rating, Crabgrass, Large: 95
[16]; Preemergence, 4 g ai/ha
  Plant response rating, Crabgrass, Large: 0
[17]; 4 g ai/ha, Postemergence
  Plant response rating, Nutsedge, Purple: 0
[17]; 31 g ai/ha, Preemergence
  Plant response rating, Nutsedge, Purple: 0
[17]; Postemergence, 8 g ai/ha
  Plant response rating, Nutsedge, Purple: 0
[17]; Postemergence, 31 g ai/ha
  Plant response rating, Nutsedge, Purple: 0
